This note sets out measurements from patent US8168650B2, “Therapeutic uses of bicyclic ligands of sigma 2 receptor” (priority 2006, dated 2012).

In series [1] the test system is caspase-3/7. The series is described as follows: Caspase-3/7 whole cell assay in EMT-6 cells. In kind it is cell-based, mouse. The note with it: EMT-6, 40 μM, 24 h. Here is the method:
Detection of intracellular cellular caspase-3/7 activity. The activation of endogenous caspase-3/7 by the sigma ligands was measured using the CellProbe HT caspase-3/7 whole cell assay (Beckman Coulter, Fullerton, Calif.). The cell permeable, nonfluorescent bisamide substrate, Z-DEVD-R110, was added to the intact cells to detect apoptosis. Upon specific cleavage by caspase-3/7, Z-DEVD-R110 is converted to a fluorescent compound, and the fluorescent signal can be measured as follows. After adding the substrate, Z-DEVD-R110, to the cells treated with a sigma ligand, the plate was incubated for an additional 1.5-2 hour, and the resulting fluorescence measured using a Victor 3 microplate fluorometer at excitation and emission wavelengths of 485 nm and 535 nm, respectively.
In these experiments, to assess whether caspase-like activity was involved in the cytotoxic pathway, a caspase-3/7 whole cell assay was performed. This assay has advantages over other cell-based assays which use a cell lysate to monitor the activity of caspase-3/7. By not disrupting the cells, the whole cell assay tends to minimize the background noise contributed by non-specific protease activity in the cell lysates. Consequently, a greater specificity for the caspase-3/7 activity can be achieved with the whole cell assay. […] The accumulation of the fluorescent product was quantified using a fluorescence microplate reader. […]

The test system of series [2] is pancreatic cancer cell lines (Panc-02, CFPAC-1, AsPC-1, Panc-1). Put plainly: Apoptosis in pancreas cancer cell lines (TUNEL / cleaved caspase-3, flow cytometry). In kind it is cell-based, mouse, human. The note with it: 24 hours incubation. The procedure: Tumor cells were seeded at a density of approximately 0.2×10^6 cells per well in 12-well plates in 1.0 ml culture medium. Cells were split and pre-incubated at 37° C. in humidified 5% CO2 for more than 24 hours (Panc-02) and 48 hours (CFPAC-1, AsPC-1, Panc-1) to insure uniform growth conditions. Compounds were dissolved in DMSO and added to the culture medium at the concentrations indicated. The final concentration of DMSO in the cell culture medium was less than 1%. The cells were then incubated for 24 hours at 37° C. in humidified 5% CO2. The extent of apoptosis was subsequently measured as previously reported (Guelen, L., et al., Oncogene 2004, 23: 1153-1165). Briefly, staining was performed on trypsin-EDTA treated cultures that had been fixed with 1% paraformaldehyde and 90% methanol. Cell pellets were resuspended in TUNEL reagent (APO-BRDU kit, San Diego, Calif.) or cleaved caspase-3 antibody (Cell Signaling Technology, Inc. Boston, Mass.) and incubated overnight at room temperature (TUNEL) or 4° C. (cleaved caspase-3). After washing, cells were resuspended in fluorescein antibody or 7-AAD buffer and incubated for 1 hour at room temperature. Cell-associated fluorescence was determined using a flow cytometry (FACScan, BD Biosciences) and analyzed with CellQuest software (BD Biosciences).
At the highest dose tested (10 μM), all sigma-2 receptor ligands induced an additional 10-20% of the cells to undergo apoptosis (FIG. 15A). […] The pan-caspase inhibitor (Z-VAD-fmk) and caspase-3/7 inhibitor (DEVD-CHO) prevented sigma-2 receptor ligand-induced apoptosis in panc-02 cells, while the caspase-1 inhibitor (YVAD-CHO) had no effect (FIG. 15B).
(In general: A flow cytometer gives signals particle by particle.)

In series [3] the target is T1, σ1 receptor (Cavia porcellus, UniProt Q60492). Put plainly: σ1 receptor binding assay, [3H](+)-pentazocine. The note with it: as listed in Table 2.
T1 sequence (Q60492 whole entry): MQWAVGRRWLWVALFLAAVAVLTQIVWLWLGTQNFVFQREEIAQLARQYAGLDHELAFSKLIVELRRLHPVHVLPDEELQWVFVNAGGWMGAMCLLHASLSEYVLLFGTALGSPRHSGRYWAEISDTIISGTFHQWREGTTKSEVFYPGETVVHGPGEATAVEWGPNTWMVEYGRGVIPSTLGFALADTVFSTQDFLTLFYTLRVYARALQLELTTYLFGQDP
Method: (§1) In vitro binding studies were conducted in order to determine the affinity of the target compounds at σ1 and σ2 receptors.
(§2) In this example, test compounds were dissolved in N,N-dimethylformamide (DMF), dimethylsulfoxide (DMSO) or ethanol and then diluted in 50 mM Tris-HCl, pH 7.4 buffer containing 150 mM NaCl and 100 mM EDTA. Membrane homogenates were made from guinea pig brain for σ1 binding assays and rat liver for σ2 binding assays. Membrane homogenates were diluted with 50 mM Tris-HCl buffer, pH 8.0, and incubated at 25° C. in a total volume of 150 μL in 96-well plates with the radioligand and test compounds with concentrations ranging from 0.1 nM to 10 μM. After incubation was completed, the reactions were terminated by the addition of 150 μL of ice-cold wash buffer (10 mM Tris-HCl, 150 mM NaCl, pH 7.4) using a 96-channel transfer pipette (Fisher Scientific, Pittsburgh, Pa.), and the samples harvested and filtered rapidly through 96-well fiberglass filter plate (Millipore, Billerica, Mass.) that had been presoaked with 100 μL of 50 mM Tris-HCl buffer, pH 8.0, for 1 h. Each filter was washed three times with 200 μL of ice cold wash buffer.
(§3) Ki values were calculated using the method of Cheng and Prusoff20 and represent mean values±SEM.
In series [4] the test system is Panc-02 tumor allografts. Put plainly: In vivo apoptosis (FACS, active caspase-3) in tumor and organs of Panc-02 bearing mice.
Method: Female C57BL/6 mice (8-12 weeks old) were purchased from the NCI and acclimated for at least 1 week before tumor implantation. All mice were injected in the right flank with 200 μl of a single cell suspension containing 1.0×10^6 Panc-02 cells. Treatment of the tumors started 2 weeks after tumor implantation when their size reached a mean diameter of 5-8 mm. To evaluate the effect of sigma-2 receptor ligands both systemically and on tumor in vivo, several mice were sacrificed after a single treatment. Necropsy was performed and single cell suspensions were prepared from retrieved organs. The extent of apoptosis in these cells was measured by FACS (described above).
The subject of series [5] is EMT-6 cells. Put plainly: TUNEL assay, enhancement of Dox-induced apoptosis in EMT-6 cells. It is filed as cell-based, mouse. Here is the method: In these experiments, a TUNEL assay was used to detect apoptotic cells with damaged DNA strands. […] Furthermore, EMT-6 cells treated with Dox at 30 nM yielded only 10% TUNEL-positive cells. However, when EMT-6 cells were treated with 2 μM WC-II-26 plus 30 nM Dox, the percentage of TUNEL-positive cells rose to 43.3%.

Series [6] has as its system Panc-02 tumors. Put plainly: Antitumor effect in vivo: tumor growth and survival, Panc-02 model. Set-up: species or system C57BL/6 mice. The note with it: listed as WC26. Here is the method: Mean tumor diameter was measured three times each week.
For series [7], the system named is EMT-6 cells. The series is described as follows: Colony formation assay on Doxorubicin-treated EMT-6 cells. It is filed as cell-based, mouse. Here is the method:
This Example illustrates colony formation assay on Doxorubicin (“Dox”)-treated EMT-6 cells in the presence or absence of 2 μM WC-II-26. The structures of the sigma ligands used in this and subsequent examples are illustrated in FIG. 5 and FIG. 6.

The nature of series [8]: Toxicity in treated mice (serum biochemistry, immunohistochemistry).
Method: Female C57BL/6 mice (8-12 weeks old) were purchased from the NCI and acclimated for at least 1 week before tumor implantation. […] For the survival study, mice (N=10 per group) were treated with sigma-2 receptor ligand at the stated concentration or vehicle control once a day for 5 days.
Series [9] deals with T1, σ1 receptor. Put plainly: biochemical.
Method: as §1, §2, §3
The target of series [10] is T1, σ1 receptor.
Method: as §1, §2, §3

Molecules are shown by their SMILES. Entries after “also recorded” stand apart in the source; their conditions may differ. Like-named read-outs stand apart in the source and are kept apart here.

For orientation: Ki means the dissociation constant of the complex between target and ligand, obtained from inhibition or displacement. Consider `COc1ccc(C)cc1NC(=O)OC1CC2CCCC(C1)N2CCCCCCN` (stereo not shown) [SV119], for which, in series [1], the “increase of endogenous caspase-3/7 activity compared with untreated cells” value amounted to 2 fold. Besides, the “apoptosis in all pancreas cancer cell lines tested” value in [2] is “dose-dependent apoptosis”. Further, affinity in [3] (Ki for σ1 (nM)) was put at a Ki of 1450 nM.

As for `COc1ccc(C)cc1NC(=O)O[C@H]1C[C@H]2CCC[C@@H](C1)N2Cc1ccc(N(C)C)cc1` [WC-II-26], in series [4] (single 2 mg dose, Panc-02 tumor allografts, p<0.0001), the “tumor cells active caspase-3 positive” value was “up to 50%”. Moreover, in series [4] (systemic administration), the “apoptosis in pancreas and livers” value is on record as less than 10%. Further, in series [4] (systemic administration, any of the concentrations tested), the “apoptosis in brain, lung, kidney or spleen (active caspase-3, FACS)” value is “did not induce apoptosis”. In addition, the “apoptosis in all pancreas cancer cell lines tested” value in [2] is “dose-dependent apoptosis”. In addition, the TUNEL-positive cells result in [5] (EMT-6, 2 μM WC-II-26 alone) is recorded as “less than 5%”; in series [5] (EMT-6, 2 μM WC-II-26 plus 30 nM Dox), 43.3%. In [6] (50 or 100 mg/kg (1 or 2 mg/day) intraperitoneal once a day for five days), the “tumor growth / tumor size versus vehicle control” value is given as “tumors shrank; also recorded: smaller tumors”. Further, the “survival (tumor diameter 15 mm or ulceration as endpoint)” value in series [6] (50 or 100 mg/kg (1 or 2 mg/day) once a day for five days, p=0.002) is “significant survival benefit; also recorded: compared favorably”. Besides, the “number of colonies formed compared to control cells” value in series [7] (EMT-6, 2 μM WC-II-26 alone) is listed as “not changed significantly”. Also, the “ability of survival reduced (% of control)” value in [7] (EMT-6, 2 μM WC-II-26 combined with 10 nM Dox) is given as 38 % of control; in series [7] (EMT-6, 2 μM WC-II-26 combined with 20 nM Dox) it was 77 % of control; in series [7] (EMT-6, 2 μM WC-II-26 combined with 30 nM Dox), 86 % of control; in series [7] (EMT-6, 2 μM WC-II-26 combined with 40 nM Dox) it was 92 % of control. Also, the Ki in [3] (Ki for σ1 (nM)) and in [9] was 5570 nM each time. Further, the “acute, systemic toxicity based on blood chemistry parameters” value in [8] (50 or 100 mg/kg once a day for five days) is “no acute, systemic toxicity”. Further, the “acute toxicity on immunohistochemical evaluation of normal tissues” value in series [8] (after WC26 treatment (data not shown)) is “no acute toxicity”. In addition, the “toxicity in serum biochemistry data” value in [8] (after systemic administration) is “no apparent toxicity”. Moreover, the “effect on serum biochemistry at the highest dose tested” value in series [8] (values still within reference ranges) was “elevated AST and depressed creatinine and glucose levels”.

Take `O[C@@H](CN1C2CCC1CC(c1ccccc1)C2)c1cccc(Br)c1` (stereo partly shown) [RHM-I-138]: in series [1], the “increase of endogenous caspase-3/7 activity compared with untreated cells” value is reported as 2 fold. The Ki in series [10] and in series [3] (read-out: Ki for σ1) was 544 nM each time.
